Patent US12275733B2, “Substituted pyrido[3,4-b]indoles for the treatment of cartilage disorders” (Sanofi, priority 2016, dated 2025)

System: ATDC5 cells
Experiment: Chondrogenesis activity assay in ATDC5 cells (collagen type II induction, immunofluorescence)
Format: cell-based, mouse
Settings: Mus musculus; for EC50: collagen type II induction in ATDC5 cells, concentration reaching 50% of maximum induction; for Emax: maximum percent induction of collagen type II relative to internal reference compound at 10 μM, ATDC5 cells
Method in brief: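 Mouse ATDC5 cells in insulin (10 μg/ml)-containing DMEM/F12 differentiation medium with 5% FCS were exposed to compound, typically 40 nM–10 μM at 0.1% DMSO, for 4 days at 37 °C. Intracellular collagen type II was quantified by Alexa Fluor 488 immunostaining with high-content imaging, relative to DMSO and a 10 μM reference compound.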

COc1ccc(-c2cc(Cl)cc3c2[nH]c2c(C)nccc23)c(Cl)n1 [Example 103, 6-Chloro-8-(2-chloro-6-methoxy-pyridin-3-yl)-1-methyl-9H-pyrido[3,4-b]indole]
EC50: 1900 nM | Emax: > 80%

Cc1nccc2c1[nH]c1c(-c3ccc(OCCn4cc(Br)cn4)cc3)cc(Cl)cc12 [Example 42, 8-(4-[2-(4-Bromo-pyrazol-1-yl)-ethoxy]-phenyl)-6-chloro-1-methyl-9H-pyrido[3,4-b]indole]
EC50: 510 nM | Emax: 50 to 80%

COc1cc(OC)nc(COc2cccc(-c3cc(Cl)cc4c3[nH]c3c(C)nccc34)c2)n1 [Example 272, 6-Chloro-8-[3-(4,6-dimethoxy-pyrimidin-2-ylmethoxy)-phenyl]-1-methyl-9H-pyrido[3,4-b]indole]
EC50: 1900 nM | Emax: > 80%

Cc1nccc2c1[nH]c1c(-c3ccc(C(F)(F)F)cc3)cc(Cl)cc12 [Example 252, 6-Chloro-1-methyl-8-(4-trifluoromethyl-phenyl)-9H-pyrido[3,4-b]indole]
EC50: 1600 nM | Emax: > 80%

Cc1cc(-c2cc(Cl)cc3c2[nH]c2c(C)nccc23)ccc1OC1CCOC1 (stereo not drawn) [Example 198, 6-Chloro-1-methyl-8-[3-methyl-4-(tetrahydrofuran-3-yloxy)-phenyl]-9H-pyrido[3,4-b]indole]
EC50: 1800 nM | Emax: 20 to 50%

Cc1nccc2c1[nH]c1c(-c3ccc(OCC4COCCO4)cc3)cc(Cl)cc12 (stereo not drawn) [Example 40, 6-Chloro-8-[4-([1,4]dioxan-2-ylmethoxy)-phenyl]-1-methyl-9H-pyrido[3,4-b]indole]
EC50: 160 nM | Emax: > 80%

CCn1c2c(-c3cncc(Cl)c3)cc(Cl)cc2c2ccnc(C)c21 [Example 78, 6-Chloro-8-(5-chloro-pyridin-3-yl)-9-ethyl-1-methyl-9H-pyrido[3,4-b]indole]
EC50: > 10000 nM | Emax: < 20%

Cc1nccc2c1[nH]c1c(-c3cccnc3)cc(Cl)cc12 [Example 65, 6-Chloro-1-methyl-8-pyridin-3-yl-9H-pyrido[3,4-b]indole]
EC50: 2300 nM | Emax: 20 to 50%

CCn1c2c(-c3cnn(C)c3)cc(C)cc2c2ccnc(C)c21 [Example 15, 9-Ethyl-1,6-dimethyl-8-(1-methyl-1H-pyrazol-4-yl)-9H-pyrido[3,4-b]indole]
EC50: 1000 nM | Emax: 50 to 80%

Cc1nccc2c1[nH]c1c(-c3cnn(Cc4ccccn4)c3)cc(Cl)cc12 [Example 242, 6-Chloro-1-methyl-8-(1-pyridin-2-ylmethyl-1H-pyrazol-4-yl)-9H-pyrido[3,4-b]indole]
EC50: 570 nM | Emax: > 80%

CCn1c2c(-c3ccn(CCn4cccn4)n3)cc(Cl)cc2c2ccnc(C)c21 [Example 233, 6-Chloro-9-ethyl-1-methyl-8-[1-(2-pyrazol-1-yl-ethyl)-1H-pyrazol-3-yl]-9H-pyrido[3,4-b]indole]
EC50: > 10000 nM | Emax: 20 to 50%

Cc1nn(C)c(C)c1-c1cc(Cl)cc2c3ccncc3n(CC(F)(F)F)c12 [Example 138, 6-Chloro-9-(2,2,2-trifluoro-ethyl)-8-(1,3,5-trimethyl-1H-pyrazol-4-yl)-9H-pyrido[3,4-b]indole]
EC50: > 10000 nM | Emax: < 20%

CCn1c2cnccc2c2cc(Cl)cc(-c3ccc(OC)nc3)c21 [Example 70, 6-Chloro-9-ethyl-8-(6-methoxy-pyridin-3-yl)-9H-pyrido[3,4-b]indole]
EC50: 570 nM | Emax: > 80%

Cc1nccc2c1[nH]c1c(-c3ccc(OC4CC4)cc3)cc(Cl)cc12 [Example 183, 6-Chloro-8-(4-cyclopropoxy-phenyl)-1-methyl-9H-pyrido[3,4-b]indole]
EC50: 2300 nM | Emax: 50 to 80%

Cc1nccc2c3cc(Cl)cc(-c4cnccc4Cl)c3n(CC3CC3)c12 [Example 283, 6-Chloro-8-(4-chloro-pyridin-3-yl)-9-cyclopropylmethyl-1-methyl-9H-pyrido[3,4-b]indole]
EC50: 410 nM | Emax: < 20%

Cc1nccc2c1[nH]c1c(-c3cccc(OCCN4CCOCC4)c3)cc(Cl)cc12 [Example 249, 6-Chloro-1-methyl-8-[3-(2-morpholin-4-yl-ethoxy)-phenyl]-9H-pyrido[3,4-b]indole]
EC50: > 3300 nM | Emax: 20 to 50%

Clc1cc(-c2ccc(Cl)nc2Cl)c2[nH]c3cnccc3c2c1 [Example 74, 6-Chloro-8-(2,6-dichloro-pyridin-3-yl)-9H-pyrido[3,4-b]indole]
EC50: 920 nM | Emax: 20 to 50%

Cc1nccc2c1[nH]c1c(-c3ccc(CC(=O)N4CCC(N5CCCC5)CC4)cc3)cc(Cl)cc12 [Example 204, 2-[4-(6-Chloro-1-methyl-9H-pyrido[3,4-b]indol-8-yl)-phenyl]-1-(4-pyrrolidin-1-yl-piperidin-1-yl)-ethanone]
EC50: 190 nM | Emax: 50 to 80%

FC(F)(F)Cn1c2cnccc2c2cc(Cl)cc(-c3ccncc3)c21 [Example 127, 6-Chloro-8-pyridin-4-yl-9-(2,2,2-trifluoro-ethyl)-9H-pyrido[3,4-b]indole]
EC50: 380 nM | Emax: 50 to 80%

CCn1c2cnccc2c2cc(Cl)cc(-c3ccc(C)cc3)c21 [Example 143, 6-Chloro-9-ethyl-8-p-tolyl-9H-pyrido[3,4-b]indole]
EC50: 970 nM | Emax: 20 to 50%

Cn1c(-c2cc(Cl)cc3c4ccncc4n(CC(F)(F)F)c23)cnc1Cl [Example 114, 6-Chloro-8-(2-chloro-3-methyl-3H-imidazol-4-yl)-9-(2,2,2-trifluoro-ethyl)-9H-pyrido[3,4-b]indole]
EC50: 5700 nM | Emax: 20 to 50%

Clc1cc(-c2cccnc2)c2c(c1)c1ccncc1n2CC1CC1 [Example 280, 6-Chloro-9-cyclopropylmethyl-8-pyridin-3-yl-9H-pyrido[3,4-b]indole]
EC50: > 10000 nM | Emax: < 20%

Cc1nccc2c1[nH]c1c(-c3ccc(Cl)cc3)cc(Cl)cc12 [Example 189, 6-Chloro-8-(4-chloro-phenyl)-1-methyl-9H-pyrido[3,4-b]indole]
EC50: 500 nM | Emax: > 80%

CCn1c2cnccc2c2cc(Cl)cc(-c3ccccc3Cl)c21 [Example 145, 6-Chloro-8-(2-chloro-phenyl)-9-ethyl-9H-pyrido[3,4-b]indole]
EC50: 480 nM | Emax: < 20%

CCn1c2c(-c3ccc(OCCN(C(C)C)C(C)C)cc3)cc(Cl)cc2c2ccnc(C)c21 [Example 26, (2-[4-(6-Chloro-9-ethyl-1-methyl-9H-pyrido[3,4-b]indol-8-yl)-phenoxy]-ethyl)-diisopropyl-amine]
EC50: 530 nM | Emax: 50 to 80%

CCn1c2c(-c3ccn(C)n3)cc(Cl)cc2c2ccnc(C)c21 [Example 20, 6-Chloro-9-ethyl-1-methyl-8-(1-methyl-1H-pyrazol-3-yl)-9H-pyrido[3,4-b]indole]
EC50: 3900 nM | Emax: 50 to 80%

CCn1c2c(-c3cnn(Cc4ccc5ccccc5n4)c3)cc(Br)cc2c2ccnc(C)c21 [Example 38, 6-Bromo-9-ethyl-1-methyl-8-(1-quinolin-2-ylmethyl-1H-pyrazol-4-yl)-9H-pyrido[3,4-b]indole]
EC50: 2600 nM | Emax: 50 to 80%

COc1ccc(-c2cc(Cl)cc3c2[nH]c2c(C)nccc23)cc1OC [Example 172, 6-Chloro-8-(3,4-dimethoxy-phenyl)-1-methyl-9H-pyrido[3,4-b]indole]
EC50: > 10000 nM | Emax: 20 to 50%

Cc1nccc2c1[nH]c1c(-c3ccc(OC4CCOC4)cc3)cc(Cl)cc12 (stereo not drawn) [Example 197, 6-Chloro-1-methyl-8-[4-(tetrahydro-furan-3-yloxy)-phenyl]-9H-pyrido[3,4-b]indole]
EC50: 630 nM | Emax: > 80%

FC(F)(F)Cn1c2cnccc2c2cc(Cl)cc(-c3cncnc3)c21 [Example 126, 6-Chloro-8-pyrimidin-5-yl-9-(2,2,2-trifluoro-ethyl)-9H-pyrido[3,4-b]indole]
EC50: > 10000 nM | Emax: 20 to 50%

Cc1nccc2c1[nH]c1c(-c3ccc(OCC4CC4)cc3)cc(Cl)cc12 [Example 181, 6-Chloro-8-(4-cyclopropylmethoxy-phenyl)-1-methyl-9H-pyrido[3,4-b]indole]
EC50: 2100 nM | Emax: > 80%

Cc1nccc2c1[nH]c1c(-c3ccc(CN4CCOCC4)cc3)cc(Cl)cc12 [Example 224, 6-Chloro-1-methyl-8-(4-morpholin-4-ylmethyl-phenyl)-9H-pyrido[3,4-b]indole]
EC50: 310 nM | Emax: > 80%

FC(F)(F)Cn1c2cnccc2c2cc(Cl)cc(-c3cnc4ccccc4c3)c21 [Example 61, 6-Chloro-8-quinolin-3-yl-9-(2,2,2-trifluoro-ethyl)-9H-pyrido[3,4-b]indole]
EC50: 5600 nM | Emax: > 80%

COc1ccc(-c2cc(Cl)cc3c2[nH]c2c(C)nccc23)cn1 [Example 94, 6-Chloro-8-(6-methoxy-pyridin-3-yl)-1-methyl-9H-pyrido[3,4-b]indole]
EC50: 750 nM | Emax: > 80%

CN(C)c1ccc(-c2cc(Cl)cc3c4ccncc4n(CC4CC4)c23)c(Cl)n1 [Example 294, [6-Chloro-5-(6-chloro-9-cyclopropylmethyl-9H-pyrido[3,4-b]indol-8-yl)-pyridin-2-yl]-dimethyl-amine]
EC50: 1200 nM | Emax: > 80%

Cc1nccc2c1[nH]c1c(-c3ccc(N4CCOC4=O)nc3)cc(Cl)cc12 [Example 110, 3-[5-(6-Chloro-1-methyl-9H-pyrido[3,4-b]indol-8-yl)-pyridin-2-yl]-oxazolidin-2-one]
EC50: > 10000 nM | Emax: 20 to 50%
